# Data taken from patent publication US8685934B2, “Methods for treating extreme insulin resistance in patients resistant to previous treatment with other anti-diabetic drugs employing an SGLT2 inhibitor and compositions thereof” (Bristol-Myers Squibb Company, priority 2009, dated 2014).
# Where two headings read alike, the source gives them in different places.
# Assays:
# [1] = system: highly insulin-resistant T2DM patients poorly controlled with insulin plus metformin and/or thiazolidinediones; conditions: for 24-hour urinary glucose, increase / Standing diastolic blood pressure, mean change / Standing systolic blood pressure, mean change / Serum hematocrit, median increase from baseline / Urinary glucose excretion, mean change from baseline: week 12; for Glomerular filtration rate, change compared to baseline: end of treatment; for Urinary glucose excretion, mean change from baseline: placebo −1.5
# Description: (§1) This was a randomized, single- and double-blind, three-arm parallel group, placebo-controlled trial to determine if dapagliflozin effectively lowers hyperglycemia in highly insulin-resistant T2DM patients poorly controlled with insulin plus metformin and/or thiazolidinediones. The trial consisted of a qualification period of 10 to 21 days, a treatment phase of 12 weeks, and a follow-up phase of 4 weeks. During qualification and until day 1, patients maintained their stable dose of open-label OADs, as well as their stable dose of prescribed insulin.
# (§2) The treatment phase utilized an adaptive trial design with two cohorts: Cohort 1, the insulin dose-setting group; and Cohort 2, the main experimental group. The purpose of Cohort 1 was to determine the ideal starting dose of insulin least likely to cause hypoglycemia when dapagliflozin would be added. In Cohort 1, four patients were assigned to 20 mg single-blind dapagliflozin on day 1 after having their insulin dose decreased by 50%, the greatest decrement possible in this adaptive design. These patients underwent 48-hour continuous blood glucose monitoring (CGM) during the first week of treatment. Pursuant to the protocol, if at least one patient recorded a CGM value ≦100 mg/dL, confirmed by self-monitoring of blood glucose (SMBG), the total daily insulin dose for patients in Cohort 2 would be set at 50% of their usual dose that is, at an average of 52 to 54 units of insulin daily, and lesser dose reductions of insulin would not be tested. […] Patients in Cohort 2 were randomized on day 1 in a 1:1:1 ratio to double-blind placebo, 10 mg dapagliflozin or 20 mg dapagliflozin once daily, in addition to their open-label OAD(s) and 50% of their usual daily insulin, that is an average of 52 to 54 units of insulin daily.
# (§3) Safety outcomes were assessed by treatment-emergent adverse events, vital signs, ECGs and laboratory measurements, including 24-hour urine collections for volume and electrolytes.
# [2] = system: highly insulin-resistant T2DM patients poorly controlled with insulin plus metformin and/or thiazolidinediones; conditions: for Adverse events, % of patients: placebo 65.2%; for Patients with genital tract infections: double-blind period, placebo one; for Events of pollakiuria, patients: placebo four patients; for Patients who reported episodes of hypoglycemia: placebo three patients
# Description: as §1, §2
# Patients were scheduled for visits at weeks 1, 2, 4, 6, 8, 10, and 12 of treatment, and performed SMBG 5 times daily during the 3 to 5 days prior to visits. No dose modifications of blinded study medication or OAD(s) were allowed during the treatment phase. Guidelines were in place throughout the trial for managing hypo- and hyperglycemia. […] Additional down-titration could be implemented as clinically indicated to manage the risk of hypoglycemia.
# as §3
# [3] = system: highly insulin-resistant T2DM patients poorly controlled with insulin plus metformin and/or thiazolidinediones
# Protocol: Criteria for management of hyperglycemia were determined by fasting plasma glucose (FPG) measurements. For any FPG level >240 mg/dL at weeks 4 and 6, >220 mg/dL at week 8, or >200 mg/dL at week 10, the patient would be scheduled for a follow-up visit in 3 to 5 days. If FPG was still above the threshold at follow-up, a visit was scheduled in order to increase the insulin dose as clinically indicated. Patients who further lacked glycemic control despite up-titration, or whose modified insulin dose exceeded baseline, were discontinued from blinded treatment and entered into follow-up.
# All patients were on insulin-sensitizer therapy for at least 6 weeks prior to enrollment and insulin-based therapy for at least 12 weeks prior to enrollment. The study protocol defined insulin-sensitizer therapy as metformin (stable dose ≧1000 mg) and/or pioglitazone (stable dose ≧30 mg) or rosiglitazone (stable dose 4 mg). Insulin-based therapy was defined as subcutaneous insulin for at least 12 weeks prior to enrollment, with 2 minimum insulin daily dose equivalent to 50 units (median 85 to 93 units across all study arms) of U100 insulin per day. The insulin regimen must have been stable for at least 6 weeks. In addition to 10 mg dapagliflozin or 20 mg dapagliflozin daily or placebo, 74.6% of patients received metformin (≧1000 mg daily) plus insulin; 16.9% of patients received metformin (≧1000 mg daily) plus pioglitazone (≧30 mg daily) or rosiglitazone (4 mg daily) plus insulin and 8.5% of patients received pioglitazone (≧30 mg daily) or rosiglitazone (4 mg daily) plus insulin.
# Patients in Cohort 1 were evaluated for safety only. Patients in Cohort 2 were evaluated for safety and efficacy. The primary efficacy measure was change from baseline in HbAlc, at week 12, last observation carried forward (LOCF). If no week 12 assessment was available, the last observation prior to week 12 was used. Secondary efficacy measures included changes from baseline at week 12 (LOCF) in FPG and insulin dose, the proportion of patients achieving a decrease in HbAlc>0.5% from baseline at week 12 (LOCF), and the proportion of patients achieving HbAlc<7% at week 12 (LOCF). Tertiary endpoints included changes from baseline in total body weight and in postprandial glucose (PPG) measured by an oral glucose tolerance test (OGTT).
# Patients in Cohort 2 were evaluated for safety and efficacy. The primary efficacy measure was change from baseline in HbAlc at week 12, last observation carried forward (LOCF). The analysis was done excluding data after up-titration of insulin. If no week 12 assessment was available, the last observation prior to week 12 was used.
# For Cohort 2, the sample size target of 22 patients per treatment group was chosen to allow for the calculation of 95% confidence intervals for the primary endpoint with a half-width of 0.42% for each treatment group. This assumed a 1% standard deviation for the primary endpoint in each of the dapagliflozin and placebo arms. With the same assumption, the half-width of a 95% confidence interval for the difference between any two treatment mean changes was estimated to be 0.59%. The primary efficacy data set consisted of all randomized patients who took at least one dose of double-blind study medication during the treatment phase. The analyses of the efficacy variables (except change from baseline in insulin dose) were done excluding data after up-titration of insulin. The analyses for changes from baseline in HbAlc, FPG, insulin dose, and total body weight at week 12 (LOCF) were performed using an analysis of covariance (ANCOVA) model with treatment group as an effect and baseline value as a covariate. Point estimates and 95% confidence intervals were calculated for mean changes within each treatment group and for differences in mean changes between the dapagliflozin and placebo groups.
# [4] = Dapagliflozin 10 mg + insulin + OAD, excludes data after insulin up-titration
# [5] = Dapagliflozin 10 mg + insulin + OAD, week 12 LOCF
smiles,measurement,setting,value
"CCOc1ccc(Cc2cc([C@@H]3O[C@H](CO)[C@@H](O)[C@H](O)[C@H]3O)ccc2Cl)cc1 [Dapagliflozin, (2S,3R,4R,5S,6R)-2-(4-chloro-3-(4-ethoxybenzyl)phenyl)-6-(hydroxymethyl)tetrahydro-2H-pyran-3,4,5-triol]","24-hour urinary glucose, increase",[1]; 10 mg dapagliflozin,~85 grams per day
same,"Standing diastolic blood pressure, mean change",[1]; 10 mg dapagliflozin,−1.2 mm Hg
same,"Standing systolic blood pressure, mean change",[1]; 10 mg dapagliflozin,−7.2 mm Hg
same,"Supine diastolic blood pressure, mean change",[1]; 20 mg dapagliflozin,−5.8 mm Hg
same,"Supine systolic blood pressure, mean change",[1]; 20 mg dapagliflozin,−5.5 mm Hg
same,"24-hour urinary glucose, increase",[1]; 20 mg dapagliflozin,~85 grams per day
same,"Standing diastolic blood pressure, mean change",[1]; 20 mg dapagliflozin,−3.9 mm Hg
same,"Standing systolic blood pressure, mean change",[1]; 20 mg dapagliflozin,−6.1 mm Hg
same,"Serum uric acid, median change from baseline",[1]; dapagliflozin 10 mg,-0.30 mg/dL
same,"Glomerular filtration rate, change compared to baseline",[1]; dapagliflozin 10 mg,−0.84 mL/min/1.73 m^2
same,Mean 24-hour urine output on treatment,"[1]; dapagliflozin 10 mg, increased from 1921.0 mL at baseline",2285.8 mL
same,"Serum hematocrit, median increase from baseline",[1]; dapagliflozin 10 mg,2.5%
same,"Urinary glucose excretion, mean change from baseline",[1]; dapagliflozin 10 mg,83.5 g/24 h
same,"Serum uric acid, median change from baseline",[1]; dapagliflozin 20 mg,-0.30 mg/dL
same,"Glomerular filtration rate, change compared to baseline",[1]; dapagliflozin 20 mg,1.45 mL/min/1.73 m^2
same,Mean 24-hour urine output on treatment,"[1]; dapagliflozin 20 mg, increased from 1808.8 mL at baseline",2253.1 mL
same,"Serum hematocrit, median increase from baseline",[1]; dapagliflozin 20 mg,3.05%
same,"Urinary glucose excretion, mean change from baseline",[1]; dapagliflozin 20 mg,85.2 g/24 h
same,"Adverse events, % of patients",[2]; 10 mg dapagliflozin arm,75.0%
same,Patients with genital tract infections,[2]; 10 mg dapagliflozin group,none
same,Events of pre-renal azotemia,"[2]; 10 mg dapagliflozin, patient on enalapril, carvedilol and furosemide, discontinued after eleven days, resolved with oral rehydration",One
same,"Events of pollakiuria, patients",[2]; 10 mg dapagliflozin,two
same,"Adverse events, % of patients",[2]; 20 mg dapagliflozin arm,66.7%
same,Patients who reported episodes of hypoglycemia,[2]; 20 mg dapagliflozin group (n = 24),six
same,Patients with genital tract infections,[2]; 20 mg dapagliflozin group,five
same,"Events of pollakiuria, patients",[2]; 20 mg dapagliflozin,three
same,Patients who reported polyuria,[2]; dapagliflozin 10 mg arm,One
same,Patients with adverse events that led to discontinuation,[2]; dapagliflozin 10 mg arm,One
same,Patients who reported episodes of hypoglycemia,[2]; dapagliflozin 10 mg group (n = 24),seven
same,Cases of microalbuminuria (resulted in discontinuation from the study),[2]; dapagliflozin 20 mg arm,One
same,Patients who reported polyuria,[2]; dapagliflozin 20 mg arm,One
same,Patients with adverse events that led to discontinuation,[2]; dapagliflozin 20 mg arm,One
same,Patients who experienced a serious adverse event,[2]; dapagliflozin 20 mg group,one
same,Patients who reported a urinary tract infection,[2]; dapagliflozin 20 mg group,One
same,"Total hypoglycemic events versus placebo, in words",[2]; major/minor episodes were balanced across all groups,more frequently reported with dapagliflozin treatment than with placebo
same,"Deaths, in words",[2]; whole study,no deaths
same,"Reductions in HbAlc and improvements over placebo in FPG and PPG, dose relation, in words",[3]; 10 and 20 mg dapagliflozin,dose-dependent
same,"Change from baseline in total daily insulin dose, in words","[3]; Cohort 2, week 12",no appreciable change
same,"Fasting plasma glucose, mean (SD), End of Double-blind (Week 12 LOCF)",[3]; [4],160.5 (38.7) mg/dL
same,"Weight, mean (SD), End of Double-blind (Week 12 LOCF)",[3]; [4],98.2 (9.4) kg
same,"Total daily insulin dose, mean (SD), End of Double-blind (Week 12 LOCF)","[3]; Dapagliflozin 10 mg + insulin + OAD, includes data after insulin up-titration, U = units of U100 insulin",51.3 (20.1) U
same,"Postprandial glucose, mean (SD), End of Double-blind (Week 12 LOCF)","[3]; Dapagliflozin 10 mg + insulin + OAD, measured at 120 minutes by OGTT, excludes data after insulin up-titration",286.0 (55.1) mg/dL
same,"Fasting plasma glucose change from baseline, difference vs placebo + insulin + OAD, mean (95% CI)",[3]; [5],−15.4 (−38.4 to 7.5) mg/dL
same,"HbA1c change from baseline, difference vs placebo + insulin + OAD, mean (95% CI)",[3]; [5],−0.70 (−1.08 to −0.32) %
